Measurements: patent publication US20240025862A1, “SUBSTITUTED N-PHENYLURACILS AND SALTS THEREOF, AND USE THEREOF AS HERBICIDAL ACTIVE SUBSTANCES” (Bayer Aktiengesellschaft, priority 2020, published 2024)

Key:
Assay type in all cases: in vivo
[1] = tested on: Abutilon theophrasti (ABUTH); experiment: Post-emergence herbicidal action, greenhouse pot test; conditions: rated visually after about 3 weeks vs untreated controls, 100% = plants have died
Outline: (§1)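 Activity was scored by eye about 3 weeks after treatment against untreated plants, where 100% means dead plants and 0% means no difference. Plants at the one-leaf stage received a foliar spray of WP or EC formulations in water plus 0.5% additive (600 l/ha, up to 20 g/ha). Plants were grown in sandy loam pots in a greenhouse for 2–3 weeks before spraying.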

[2] = tested on: Amaranthus retroflexus (AMARE); experiment: as above; conditions: rated visually after about 3 weeks vs untreated controls, 100% = plants have died
Outline: as §1

[3] = tested on: Avena fatua (AVEFA); experiment: as above; conditions: rated visually after about 3 weeks vs untreated controls, 100% = plants have died
Outline: as §1

[4] = tested on: Lolium rigidum (LOLRI); experiment: as above; conditions: dosage 20 g/ha
Outline: as §1

[5] = tested on: Pharbitis purpurea (PHBPU); experiment: as above
Outline: as §1

[6] = tested on: Polygonum convolvulus (POLCO); experiment: as above
Outline: as §1

[7] = tested on: Veronica persica (VERPE); experiment: as above
Outline: as §1

[8] = tested on: Viola tricolor (VIOTR); experiment: as above
Outline: as §1

[9] = tested on: Alopecurus myosuroides (ALOMY); experiment: Post-emergence herbicidal action, greenhouse pot test (also comparative test C); conditions: rated visually after about 3 weeks vs untreated controls, 100% = plants have died
Outline: (§2)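 Greenhouse pot plants in sandy loam were sprayed post-emergence at the one-leaf stage (2–3 weeks after sowing) with WP or EC formulations plus 0.5% additive at 600 l/ha water. Activity was rated visually after about 3 weeks versus untreated controls (100% = dead, 0% = like control); rates were 20 g/ha or less, and 5 g/ha or less in the comparative test.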

[10] = tested on: Echinochloa crus-galli (ECHCG); experiment: as above; conditions: for Post-emergence action at 1.25 g/ha against ECHCG in %: rated visually after about 3 weeks vs untreated controls, 100% = plants have died
Outline: as §2

[11] = tested on: Matricaria inodora (MATIN); experiment: as above
Outline: as §2

[12] = tested on: Setaria viridis (SETVI); experiment: as above; conditions: for Post-emergence action against SETVI: 20 g/ha
Outline: as §2

[13] = tested on: Triticum aestivum (TRZAS); experiment: Post-emergence crop plant compatibility, greenhouse pot test; conditions: vs untreated controls
Outline: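 Visual % damage vs untreated controls, scored ~3 weeks post-spray (100% = dead, 0% = as control). Plants in sandy loam, greenhouse; treated at one-leaf stage, 2–3 wk after sowing. WP/EC, aqueous, 0.5% additive, 600 l/ha. Suffixes a/b/c = different dosages.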

[14] = tested on: Oryza sativa (ORYSA); experiment: Post-emergence crop plant compatibility, greenhouse pot test (also comparative test C); conditions: for Post-emergence action against ORYSA (crop plant compatibility): vs untreated controls
Outline: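 Visual damage versus untreated plants (0% = like control, 100% = plants died) was scored about 3 weeks after a post-emergence spray in greenhouse pots. Treatment: one-leaf stage, WP or EC in water at 600 l/ha with 0.5% additive; a/b/c mark different dosages on the same crop.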

SMILES	Post-emergence action at 1.25 g/ha against ABUTH in % [1] [%]	Post-emergence action at 5 g/ha against ABUTH in % [1] [%]	Post-emergence action at 20 g/ha against ABUTH in % [1] [%]	Post-emergence action at 1.25 g/ha against AMARE in % [2] [%]	Post-emergence action at 5 g/ha against AMARE in % [2] [%]	Post-emergence action at 20 g/ha against AMARE in % [2] [%]	Post-emergence action at 20 g/ha against AVEFA in % [3] [%]	Post-emergence action against LOLRI in % [4] [%]	Post-emergence action against PHBPU in % ([5]; dosage 1.25 g/ha) [%]	Post-emergence action against PHBPU in % ([5]; dosage 5 g/ha) [%]	Post-emergence action against PHBPU in % ([5]; dosage 20 g/ha) [%]	Post-emergence action against POLCO in % ([6]; dosage 5 g/ha) [%]	Post-emergence action against POLCO in % ([6]; dosage 20 g/ha) [%]	Post-emergence action against VERPE ([7]; 1.25 g/ha) [%]	Post-emergence action against VERPE ([7]; 5 g/ha) [%]	Post-emergence action against VERPE ([7]; 20 g/ha) [%]	Post-emergence action against VIOTR ([8]; 1.25 g/ha) [%]	Post-emergence action against VIOTR ([8]; 5 g/ha) [%]	Post-emergence action against VIOTR ([8]; 20 g/ha) [%]	Post-emergence action at 1.25 g/ha against ALOMY in % [9] [%]	further results
Cn1c(C(F)(F)F)cc(=O)n(-c2cc(Oc3ccccc3OCC(=O)OCc3cccnn3)c(Br)cc2F)c1=O [I.8-291]	100	100	100	100	100	100	90	80	100	100	100	100	100	100	100	100	100	100	100	80	Post-emergence action at 5 g/ha against ALOMY in % [9]: 90%; Post-emergence action at 20 g/ha against ALOMY in % [9]: 100%; Post-emergence action at 1.25 g/ha against ECHCG in % [10]: 100%; Post-emergence action against ECHCG in % ([10]; dosage 5 g/ha): 100%; Post-emergence action against ECHCG in % ([10]; dosage 20 g/ha): 100%; Post-emergence action against MATIN in % ([11]; dosage 20 g/ha): 100%; Post-emergence action against SETVI [12]: 100%; Post-emergence action against SETVI in % ([12]; dosage 1.25 g/ha): 100%; Post-emergence action against SETVI in % ([12]; dosage 5 g/ha): 100%; Post-emergence action against TRZAS (crop plant compatibility) ([13]; 1.25 g/ha): 10%; Post-emergence action against TRZAS (crop plant compatibility) ([13]; 5 g/ha): 20%; Post-emergence action against ORYSA (crop plant compatibility) ([14]; 1.25 g/ha): 0%; Post-emergence action against ORYSA (crop plant compatibility) ([14]; 5 g/ha): 20%
Cn1c(C(F)(F)F)cc(=O)n(-c2cc(Oc3ccccc3OCC(=O)OCc3cccnn3)c(C#N)cc2F)c1=O [I.9-291]	100	100	100	100	100	100	80	90	100	100	100	90	100	100	100	100	100	100	100	80	Post-emergence action at 5 g/ha against AVEFA in % [3]: 80%; Post-emergence action against POLCO in % ([6]; dosage 1.25 g/ha): 80%; Post-emergence action at 5 g/ha against ALOMY in % [9]: 90%; Post-emergence action at 20 g/ha against ALOMY in % [9]: 100%; Post-emergence action against ECHCG in % ([10]; dosage 5 g/ha): 90%; Post-emergence action against ECHCG in % ([10]; dosage 20 g/ha): 100%; Post-emergence action against MATIN in % ([11]; dosage 5 g/ha): 80%; Post-emergence action against MATIN in % ([11]; dosage 20 g/ha): 100%; Post-emergence action against SETVI [12]: 100%; Post-emergence action against SETVI in % ([12]; dosage 1.25 g/ha): 100%; Post-emergence action against SETVI in % ([12]; dosage 5 g/ha): 100%; Post-emergence action against TRZAS (crop plant compatibility) ([13]; 1.25 g/ha): 20%; Post-emergence action against TRZAS (crop plant compatibility) ([13]; 5 g/ha): 20%; Post-emergence action against ORYSA (crop plant compatibility) ([14]; 1.25 g/ha): 0%; Post-emergence action against ORYSA (crop plant compatibility) ([14]; 5 g/ha): 0%; Post-emergence action against ORYSA in % ([14]; 20 g/ha, crop plant compatibility): 20%
Cn1c(C(F)(F)F)cc(=O)n(-c2cc(Oc3ccccc3OCC(=O)OCCOC(F)(F)F)c(Cl)cc2F)c1=O [I.7-41]	100	100	100	100	100	100	80	80	100	100	100	100	100	80	100	100	100	100	100	100	Post-emergence action at 5 g/ha against AVEFA in % [3]: 80%; Post-emergence action at 5 g/ha against ALOMY in % [9]: 100%; Post-emergence action at 20 g/ha against ALOMY in % [9]: 100%; Post-emergence action at 1.25 g/ha against ECHCG in % [10]: 90%; Post-emergence action against ECHCG in % ([10]; dosage 5 g/ha): 100%; Post-emergence action against ECHCG in % ([10]; dosage 20 g/ha): 100%; Post-emergence action against MATIN in % ([11]; dosage 1.25 g/ha): 90%; Post-emergence action against MATIN in % ([11]; dosage 5 g/ha): 90%; Post-emergence action against MATIN in % ([11]; dosage 20 g/ha): 100%; Post-emergence action against SETVI [12]: 100%; Post-emergence action against SETVI in % ([12]; dosage 1.25 g/ha): 100%; Post-emergence action against SETVI in % ([12]; dosage 5 g/ha): 100%; Post-emergence action against TRZAS (crop plant compatibility) ([13]; 1.25 g/ha): 0%; Post-emergence action against TRZAS (crop plant compatibility) ([13]; 5 g/ha): 20%; Post-emergence action against ORYSA (crop plant compatibility) ([14]; 1.25 g/ha): 0%; Post-emergence action against ORYSA (crop plant compatibility) ([14]; 5 g/ha): 20%
